Source: patent US20080021045A1, “7-Amino-5-Halopyrazolopyrimidines with a Fungicidal Action” (BAYER CROPSCIENCE AKTIENGESELLSCHSFT, priority 2003, published 2008)

Assay: logP determination by HPLC (EEC Directive 79/831 Annex V. A8)
Format: physicochemical
Details: gradient method, acetonitrile/0.1% aqueous phosphoric acid

SMILES: CCC(C)c1c(Cl)nc2c(C=O)cnn2c1NC(C)C(C)C (stereo not drawn) [Example 2, 3-formyl-5-chloro-6-(sec-butyl)-7-(3-methyl-2-butylamino)pyrazolo[1,5-a]pyrimidine]
- chromatographic logP: 4.17

SMILES: CCC(C)c1c(Cl)nc2c(C#N)cnn2c1NC(C)C(C)C (stereo not drawn) [Example 1, 3-cyano-5-chloro-6-(sec-butyl)-7-[(S+)-3-methyl-2-butylamino]pyrazolo[1,5-a]pyrimidine]
- chromatographic logP: 4.59

SMILES: CCC(C)c1c(Cl)nc2c(C#N)cnn2c1Cl (stereo not drawn) [Example 30, 3-cyano-5,7-dichloro-6-(sec-butyl)pyrazolo[1,5-a]pyrimidine]
- chromatographic logP: 3.27
